Here are results for one molecule from publication PMC5218480 (PLoS ONE, 2017).

The assay has as its system MV-4-11 cells. The assay is described as follows: Gene expression microarray analysis (Affymetrix PrimeView) and GSEA. The class given is cell-based, human. Also on record: RFU PODN (11730768_x_at) / Fold change /veh PODN (11730768_x_at) / RFU LINC00158 (11744669_a_at) / Fold change /veh LINC00158 (11744669_a_at) / RFU DUSP10 (11751237_a_at) / Fold change /veh DUSP10 (11751237_a_at) / RFU ID3 (11757404_x_at) / Fold change /veh ID3 (11757404_x_at) / RFU PLEKHG5 (11737974_s_at) / Fold change /veh PLEKHG5 (11737974_s_at) / RFU LRRC4B (11730491_at) / Fold change /veh LRRC4B (11730491_at) / RFU GIMAP4 (11747438_a_at) / Fold change /veh GIMAP4 (11747438_a_at) / RFU KRT8 (11758183_x_at) / Fold change /veh KRT8 (11758183_x_at) / RFU CNN1 (11734310_a_at) / Fold change /veh CNN1 (11734310_a_at) / RFU VPS37D (11726825_at) / Fold change /veh VPS37D (11726825_at) / RFU C10orf10 (11716522_x_at) / Fold change /veh C10orf10 (11716522_x_at) / RFU KIR2DL2 /// KIR2DL4 /// KIR2DL5A /// KIR2DL5B /// KIR2DS1 /// KIR2DS2 /// KIR2DS3 /// KIR2DS4 /// KIR3DL3 /// KIR3DL3 /// KIR3DS1 (11738374_at) / Fold change /veh KIR2DL2 /// KIR2DL4 /// KIR2DL5A /// KIR2DL5B /// KIR2DS1 /// KIR2DS2 /// KIR2DS3 /// KIR2DS4 /// KIR3DL3 /// KIR3DL3 /// KIR3DS1 (11738374_at) / RFU C1QL1 (11718748_at) / Fold change /veh C1QL1 (11718748_at) / RFU TMPRSS4 (11747572_a_at) / Fold change /veh TMPRSS4 (11747572_a_at) / RFU HAMP (11756126_x_at) / Fold change /veh HAMP (11756126_x_at) / RFU RNFT2 (11725882_a_at) / Fold change /veh RNFT2 (11725882_a_at) / RFU NR4A2 (11747474_a_at) / Fold change /veh NR4A2 (11747474_a_at) / RFU ABCC12 (11746883_a_at) / Fold change /veh ABCC12 (11746883_a_at) / RFU TMEM136 (11760407_x_at) / Fold change /veh TMEM136 (11760407_x_at) / RFU CLDN22 /// WWC2 (11732394_at) / Fold change /veh CLDN22 /// WWC2 (11732394_at) / RFU HLA-DPB1 (11760878_x_at) / Fold change /veh HLA-DPB1 (11760878_x_at) / RFU SPINT1 (11716480_a_at) / Fold change /veh SPINT1 (11716480_a_at) / RFU GAP43 (11754022_s_at) / Fold change /veh GAP43 (11754022_s_at) / RFU A4GNT (11735810_at) / Fold change /veh A4GNT (11735810_at) / RFU PRB3 (11715151_x_at) / Fold change /veh PRB3 (11715151_x_at) / RFU TUBB4B (11761932_at) / Fold change /veh TUBB4B (11761932_at) / RFU CAPN14 (11732068_a_at) / Fold change /veh CAPN14 (11732068_a_at) / RFU TMCC2 (11721928_a_at) / Fold change /veh TMCC2 (11721928_a_at) / RFU IRGQ (11745062_a_at) / Fold change /veh IRGQ (11745062_a_at) / RFU FAM174B (11720279_a_at) / Fold change /veh FAM174B (11720279_a_at) / RFU TMPRSS4 (11748680_a_at) / Fold change /veh TMPRSS4 (11748680_a_at) / RFU FAM212B (11763350_a_at) / Fold change /veh FAM212B (11763350_a_at) / RFU PLEKHG5 (11743358_a_at) / Fold change /veh PLEKHG5 (11743358_a_at) / RFU ZSCAN30 (11745921_a_at) / Fold change /veh ZSCAN30 (11745921_a_at) / RFU CMKLR1 (11741424_a_at) / Fold change /veh CMKLR1 (11741424_a_at) / RFU LOC101060620 /// MAPK8IP1 (11723275_at) / Fold change /veh LOC101060620 /// MAPK8IP1 (11723275_at) / RFU SPTSSB (11747773_x_at) / Fold change /veh SPTSSB (11747773_x_at) / RFU PRSS12 (11739890_at) / Fold change /veh PRSS12 (11739890_at) / RFU BIN1 (11741810_x_at) / Fold change /veh BIN1 (11741810_x_at) / RFU WNT11 (11732464_a_at) / Fold change /veh WNT11 (11732464_a_at) / RFU C10orf10 (11716521_a_at) / Fold change /veh C10orf10 (11716521_a_at) / RFU C5orf56 (11738089_at) / Fold change /veh C5orf56 (11738089_at) / RFU CYB561 (11721691_x_at) / Fold change /veh CYB561 (11721691_x_at) / RFU ANKRD19P (11752326_a_at) / Fold change /veh ANKRD19P (11752326_a_at) / RFU OR2T12 /// OR2T33 /// OR2T8 (11738714_s_at) / Fold change /veh OR2T12 /// OR2T33 /// OR2T8 (11738714_s_at) / RFU VCAN (11748164_a_at) / Fold change /veh VCAN (11748164_a_at) / RFU JSRP1 (11732532_at) / Fold change /veh JSRP1 (11732532_at) / RFU KRTAP10-11 (11738290_x_at) / Fold change /veh KRTAP10-11 (11738290_x_at) / RFU MYO3A (11730013_a_at) / Fold change /veh MYO3A (11730013_a_at) / RFU EBF3 (11725865_a_at) / Fold change /veh EBF3 (11725865_a_at) / RFU CAMK2N1 (11719241_x_at) / Fold change /veh CAMK2N1 (11719241_x_at) / RFU C5orf56 (11738088_a_at) / Fold change /veh C5orf56 (11738088_a_at) / RFU OLFML3 (11715873_a_at) / Fold change /veh OLFML3 (11715873_a_at) / RFU LOC100653217 /// NTM (11731650_a_at) / Fold change /veh LOC100653217 /// NTM (11731650_a_at) / RFU MAPK11 (11762145_a_at) / Fold change /veh MAPK11 (11762145_a_at) / RFU FIZ1 (11724087_x_at) / Fold change /veh FIZ1 (11724087_x_at) / RFU OASL (11726364_x_at) / Fold change /veh OASL (11726364_x_at) / RFU SOX15 (11748057_x_at) / Fold change /veh SOX15 (11748057_x_at) / RFU CD79A (11719716_a_at) / Fold change /veh CD79A (11719716_a_at) / RFU HIST1H1D (11736915_at) / Fold change /veh HIST1H1D (11736915_at) / RFU CASKIN2 (11723855_a_at) / Fold change /veh CASKIN2 (11723855_a_at) / RFU LOC730098 (11760151_x_at) / Fold change /veh LOC730098 (11760151_x_at) / RFU OR4N2 (11742367_at) / Fold change /veh OR4N2 (11742367_at) / RFU PRRT2 (11749266_a_at) / Fold change /veh PRRT2 (11749266_a_at) / RFU SNX32 (11753110_a_at) / Fold change /veh SNX32 (11753110_a_at) / RFU CDHR5 (11726645_a_at) / Fold change /veh CDHR5 (11726645_a_at) / RFU RCAN1 (11760418_a_at) / Fold change /veh RCAN1 (11760418_a_at) / RFU FAM167A (11723789_a_at) / Fold change /veh FAM167A (11723789_a_at) / RFU FAM26E (11764081_at) / Fold change /veh FAM26E (11764081_at) / RFU ISYNA1 (11749810_s_at) / Fold change /veh ISYNA1 (11749810_s_at) / RFU ACY1 (11761880_at) / Fold change /veh ACY1 (11761880_at) / RFU 11764098_at / Fold change /veh 11764098_at / RFU SAMD14 (11745864_x_at) / Fold change /veh SAMD14 (11745864_x_at) / RFU NPB (11741838_a_at) / Fold change /veh NPB (11741838_a_at) / RFU TMPRSS6 (11731388_a_at) / Fold change /veh TMPRSS6 (11731388_a_at) / RFU KRTAP10-2 (11738614_at) / Fold change /veh KRTAP10-2 (11738614_at) / RFU ARHGAP8 /// PRR5-ARHGAP8 (11727945_x_at) / Fold change /veh ARHGAP8 /// PRR5-ARHGAP8 (11727945_x_at) / RFU KRTAP5-7 /// NADSYN1 (11734609_at) / Fold change /veh KRTAP5-7 /// NADSYN1 (11734609_at) / RFU RASL12 (11751679_a_at) / Fold change /veh RASL12 (11751679_a_at) / RFU CDKN2B (11736163_a_at) / Fold change /veh CDKN2B (11736163_a_at) / RFU PRF1 (11729649_at) / Fold change /veh PRF1 (11729649_at) / RFU, ZNF638 /// ZNF638-IT1 / Fold change vs veh, ZNF638 /// ZNF638-IT1 / RFU, PANK3 / Fold change vs veh, PANK3 / RFU, SH3YL1 / Fold change vs veh, SH3YL1 / RFU, ZEB2 / Fold change vs veh, ZEB2 / RFU, NRIP1 / Fold change vs veh, NRIP1 / RFU, PTTG1IP / Fold change vs veh, PTTG1IP / RFU, CAPN2 / Fold change vs veh, CAPN2 / RFU, MED14 / Fold change vs veh, MED14 / RFU, SNORA58 / Fold change vs veh, SNORA58 / RFU, C1orf63 / Fold change vs veh, C1orf63 / RFU, LRRFIP1 / Fold change vs veh, LRRFIP1 / RFU, NDUFAF7 / Fold change vs veh, NDUFAF7 / RFU, SLC12A2 / Fold change vs veh, SLC12A2 / RFU, IBTK / Fold change vs veh, IBTK / RFU, ESF1 / Fold change vs veh, ESF1 / Fold change vs veh, TMEM50B / RFU, TAOK1 / Fold change vs veh, TAOK1 / RFU, ACBD3 / Fold change vs veh, ACBD3 / RFU, TMA16 / Fold change vs veh, TMA16 / RFU, RWDD3 / Fold change vs veh, RWDD3 / RFU, BCAT1 / Fold change vs veh, BCAT1 / RFU, EDEM3 / Fold change vs veh, EDEM3 / RFU, TMEM33 / Fold change vs veh, TMEM33 / RFU, WDR75 / Fold change vs veh, WDR75 / RFU, AHCTF1 / Fold change vs veh, AHCTF1 / RFU, TFRC / Fold change vs veh, TFRC / RFU, ZDHHC17 / Fold change vs veh, ZDHHC17 / RFU, NOM1 / Fold change vs veh, NOM1 / RFU, ARL8B / Fold change vs veh, ARL8B / RFU, ZBTB11 / Fold change vs veh, ZBTB11 / RFU, TAMM41 / Fold change vs veh, TAMM41 / RFU, KIAA1704 /// LOC100996395 / Fold change vs veh, KIAA1704 /// LOC100996395 / RFU, ING1 / Fold change vs veh, ING1 / RFU, TRMT61B / Fold change vs veh, TRMT61B / RFU, FUBP3 / Fold change vs veh, FUBP3 / RFU, TP53 / Fold change vs veh, TP53 / RFU, TNKS2 / Fold change vs veh, TNKS2 / RFU, ZFP14 / Fold change vs veh, ZFP14 / RFU, ACTR2 / Fold change vs veh, ACTR2 / RFU, PPP3R1 / Fold change vs veh, PPP3R1 / RFU, PIK3R1 / Fold change vs veh, PIK3R1 / RFU, HNRNPA1 / Fold change vs veh, HNRNPA1 / RFU, RNF170 / Fold change vs veh, RNF170 / RFU, ZNF28 / Fold change vs veh, ZNF28 / RFU, RNGTT / Fold change vs veh, RNGTT / RFU, OGT / Fold change vs veh, OGT / RFU, BRD1 / Fold change vs veh, BRD1 / RFU, MARS / Fold change vs veh, MARS / RFU, ZNF655 / Fold change vs veh, ZNF655 / RFU, FAHD1 / Fold change vs veh, FAHD1 / RFU, BDP1 / Fold change vs veh, BDP1 / RFU, LRRCC1 / Fold change vs veh, LRRCC1 / RFU, ARID1A / Fold change vs veh, ARID1A / RFU, ZNF146 / Fold change vs veh, ZNF146 / RFU, ZNF330 / Fold change vs veh, ZNF330 / RFU, GPN3 / Fold change vs veh, GPN3 / RFU, C9orf123 / Fold change vs veh, C9orf123 / RFU, N4BP2L2 / Fold change vs veh, N4BP2L2 / RFU, ARFIP1 / Fold change vs veh, ARFIP1 / RFU, FAM179B / Fold change vs veh, FAM179B / RFU, BCL10 / Fold change vs veh, BCL10 / RFU, UHRF1BP1L / Fold change vs veh, UHRF1BP1L / RFU, BET1 / Fold change vs veh, BET1 / RFU, CNOT2 / Fold change vs veh, CNOT2 / RFU, ZNF268 / Fold change vs veh, ZNF268 / Fold change vs veh, ZNF507 / RFU, DGCR2 / Fold change vs veh, DGCR2 / RFU, WDSUB1 / Fold change vs veh, WDSUB1 / Fold change vs veh, HSP90B1 /// MIR3652 / RFU, ADSS / Fold change vs veh, ADSS / RFU, GK / Fold change vs veh, GK / RFU, ZNF148 / Fold change vs veh, ZNF148 / RFU, TAF9 / Fold change vs veh, TAF9 / RFU, SLC1A5 / Fold change vs veh, SLC1A5 / RFU, SLMO2 / Fold change vs veh, SLMO2 / RFU, ABCC4 / Fold change vs veh, ABCC4 / RFU, LOC101060439 /// RAP1B / Fold change vs veh, LOC101060439 /// RAP1B / RFU, RFX7 / Fold change vs veh, RFX7 / RFU, GTPBP10 / Fold change vs veh, GTPBP10 / RFU, CNEP1R1 / Fold change vs veh, CNEP1R1 / RFU, BIVM-ERCC5 /// ERCC5 / Fold change vs veh, BIVM-ERCC5 /// ERCC5 / RFU, ILF3 / Fold change vs veh, ILF3 / RFU 11762660_at / Fold change /veh 11762660_at / RFU VCAN (11757783_s_at) / Fold change /veh VCAN (11757783_s_at) / RFU DDX43 (11728927_at) / Fold change /veh DDX43 (11728927_at) / RFU KRT8 (11758188_x_at) / Fold change /veh KRT8 (11758188_x_at) / RFU NKD1 (11759106_at) / Fold change /veh NKD1 (11759106_at) / RFU SRD5A1 (11742802_a_at) / Fold change /veh SRD5A1 (11742802_a_at) / RFU TPSAB1 /// TPSB2 (11721975_s_at) / Fold change /veh TPSAB1 /// TPSB2 (11721975_s_at) / RFU GSTM3 (11746129_a_at) / Fold change /veh GSTM3 (11746129_a_at) / RFU IL23R (11737362_x_at) / Fold change /veh IL23R (11737362_x_at) / RFU TMEM51 (11727254_a_at) / Fold change /veh TMEM51 (11727254_a_at) / RFU PIWIL2 (11732686_x_at) / Fold change /veh PIWIL2 (11732686_x_at) / RFU ORM1 (11744905_x_at) / Fold change /veh ORM1 (11744905_x_at) / RFU CCDC152 (11743942_at) / Fold change /veh CCDC152 (11743942_at) / RFU ECM1 (11717891_a_at) / Fold change /veh ECM1 (11717891_a_at) / RFU IL23R (11748794_a_at) / Fold change /veh IL23R (11748794_a_at) / RFU TNFAIP8L3 (11732012_x_at) / Fold change /veh TNFAIP8L3 (11732012_x_at) / RFU MBOAT4 (11741988_at) / Fold change /veh MBOAT4 (11741988_at) / RFU 11764193_at / Fold change /veh 11764193_at / RFU TMEM53 (11763286_at) / Fold change /veh TMEM53 (11763286_at) / RFU MAGEB2 (11727129_at) / Fold change /veh MAGEB2 (11727129_at) / RFU TMEM200A (11744735_a_at) / Fold change /veh TMEM200A (11744735_a_at) / RFU CCDC152 (11751479_a_at) / Fold change /veh CCDC152 (11751479_a_at) / RFU FAM211A (11726209_a_at) / Fold change /veh FAM211A (11726209_a_at) / RFU RGS16 (11746705_a_at) / Fold change /veh RGS16 (11746705_a_at) / RFU VCAN (11755009_s_at) / Fold change /veh VCAN (11755009_s_at) / RFU RHOB (11743442_s_at) / Fold change /veh RHOB (11743442_s_at) / RFU RGS16 (11720943_a_at) / Fold change /veh RGS16 (11720943_a_at) / RFU RGS16 (11720944_at) / Fold change /veh RGS16 (11720944_at) / RFU, VPS4B / Fold change vs veh, VPS4B / RFU, CREB1 / Fold change vs veh, CREB1 / RFU, DNAJC13 / Fold change vs veh, DNAJC13 / RFU, GNAQ / Fold change vs veh, GNAQ / RFU, CDK5R1 / Fold change vs veh, CDK5R1 / RFU, ZRANB3 / Fold change vs veh, ZRANB3 / RFU, CUL4A / Fold change vs veh, CUL4A / RFU, CCNY / Fold change vs veh, CCNY / RFU, UFL1 / Fold change vs veh, UFL1 / RFU, COG3 / Fold change vs veh, COG3 / RFU, DIAPH2 / Fold change vs veh, DIAPH2 / RFU, SKA2 / Fold change vs veh, SKA2 / RFU, AFF3 / Fold change vs veh, AFF3 / RFU, LMF1 / Fold change vs veh, LMF1 / RFU, IPO11 / Fold change vs veh, IPO11 / RFU, DFFB / Fold change vs veh, DFFB / RFU, FOXP1 / Fold change vs veh, FOXP1 / RFU, CARD8 / Fold change vs veh, CARD8 / RFU, STRN3 / Fold change vs veh, STRN3 / RFU, ADK / Fold change vs veh, ADK / RFU, RASSF2 / Fold change vs veh, RASSF2 / RFU, WIPF1 / Fold change vs veh, WIPF1 / RFU, LARP1B / Fold change vs veh, LARP1B / RFU, RASA1 / Fold change vs veh, RASA1 / RFU, RB1 / Fold change vs veh, RB1 / RFU, PPFIA1 / Fold change vs veh, PPFIA1 / RFU, MAT2A / Fold change vs veh, MAT2A / RFU, CCT5 / Fold change vs veh, CCT5 / RFU, WDR92 / Fold change vs veh, WDR92 / RFU, CUX1 / Fold change vs veh, CUX1 / RFU, TTC7A / Fold change vs veh, TTC7A / RFU, TMEM135 / Fold change vs veh, TMEM135 / RFU, DEPTOR / Fold change vs veh, DEPTOR / RFU, CPM / Fold change vs veh, CPM / RFU, DNAJB6 / Fold change vs veh, DNAJB6 / RFU, CACNA2D3 / Fold change vs veh, CACNA2D3 / RFU, DTX4 / Fold change vs veh, DTX4 / RFU, TFCP2 / Fold change vs veh, TFCP2 / RFU, GMCL1 /// GMCL1P1 / Fold change vs veh, GMCL1 /// GMCL1P1 / RFU, AEBP2 / Fold change vs veh, AEBP2 / RFU, SNHG1 /// SNORD22 /// SNORD25 /// SNORD26 /// SNORD27 /// SNORD28 /// SNORD29 /// SNORD31 / Fold change vs veh, SNHG1 /// SNORD22 /// SNORD25 /// SNORD26 /// SNORD27 /// SNORD28 /// SNORD29 /// SNORD31 / Fold change (Aza/veh), C12orf56 (ProbeSet 11735607_a_at) / Fold change (ACY-1035/veh), C12orf56 (ProbeSet 11735607_a_at) / Fold change (Aza/veh), FGFR1OP (ProbeSet 11751329_s_at) / Fold change (ACY-1035/veh), FGFR1OP (ProbeSet 11751329_s_at) / Fold change (Aza/veh), VPS36 (ProbeSet 11739960_a_at) / Fold change (ACY-1035/veh), VPS36 (ProbeSet 11739960_a_at) / RFU SYPL1 (11715823_x_at) / Fold change /veh SYPL1 (11715823_x_at) / RFU IGFBP7 (11715501_s_at) / Fold change /veh IGFBP7 (11715501_s_at) / RFU REEP3 (11722064_at) / Fold change /veh REEP3 (11722064_at) / RFU IGLL1 (11728026_x_at) / Fold change /veh IGLL1 (11728026_x_at): dose or concentration left out as unconfirmed. The conditions noted are these: ProbeSet 11757113_a_at; LIST D.

On to `Nc1ncn([C@@H]2O[C@H](CO)[C@@H](O)[C@H]2O)c(=O)n1` [azacitidine], for which the “Fold change vs veh, SNHG1 /// SNORD22 /// SNORD25 /// SNORD26 /// SNORD27 /// SNORD28 /// SNORD29 /// SNORD31” value was 0.81.
